According to US20090182020A1, “SUBSTITUTED BIS(HETERO)AROMATIC N--ETHYLPROPIOLAMIDES AND USE THEREOF FOR PRODUCTION OF MEDICAMENTS” (GRUNENTHAL GMBH, priority 2005, published 2009):

target: T1, mGluR5 receptor (pig) (Sus scrofa, UniProt I3LUI7); test: [3H]-MPEP bond in the mGluR5 receptor bond assay (pig brain homogenate); format: binding; settings: 5 nM [3H]-MPEP; pig brain homogenate
T1 construct: 450 μg protein from brain homogenate is incubated with 5 nM ^3[H]-MPEP; from tissue; host or cells: pig brain halves without medulla, cerebellum and pons
T1 sequence (I3LUI7 19-1212): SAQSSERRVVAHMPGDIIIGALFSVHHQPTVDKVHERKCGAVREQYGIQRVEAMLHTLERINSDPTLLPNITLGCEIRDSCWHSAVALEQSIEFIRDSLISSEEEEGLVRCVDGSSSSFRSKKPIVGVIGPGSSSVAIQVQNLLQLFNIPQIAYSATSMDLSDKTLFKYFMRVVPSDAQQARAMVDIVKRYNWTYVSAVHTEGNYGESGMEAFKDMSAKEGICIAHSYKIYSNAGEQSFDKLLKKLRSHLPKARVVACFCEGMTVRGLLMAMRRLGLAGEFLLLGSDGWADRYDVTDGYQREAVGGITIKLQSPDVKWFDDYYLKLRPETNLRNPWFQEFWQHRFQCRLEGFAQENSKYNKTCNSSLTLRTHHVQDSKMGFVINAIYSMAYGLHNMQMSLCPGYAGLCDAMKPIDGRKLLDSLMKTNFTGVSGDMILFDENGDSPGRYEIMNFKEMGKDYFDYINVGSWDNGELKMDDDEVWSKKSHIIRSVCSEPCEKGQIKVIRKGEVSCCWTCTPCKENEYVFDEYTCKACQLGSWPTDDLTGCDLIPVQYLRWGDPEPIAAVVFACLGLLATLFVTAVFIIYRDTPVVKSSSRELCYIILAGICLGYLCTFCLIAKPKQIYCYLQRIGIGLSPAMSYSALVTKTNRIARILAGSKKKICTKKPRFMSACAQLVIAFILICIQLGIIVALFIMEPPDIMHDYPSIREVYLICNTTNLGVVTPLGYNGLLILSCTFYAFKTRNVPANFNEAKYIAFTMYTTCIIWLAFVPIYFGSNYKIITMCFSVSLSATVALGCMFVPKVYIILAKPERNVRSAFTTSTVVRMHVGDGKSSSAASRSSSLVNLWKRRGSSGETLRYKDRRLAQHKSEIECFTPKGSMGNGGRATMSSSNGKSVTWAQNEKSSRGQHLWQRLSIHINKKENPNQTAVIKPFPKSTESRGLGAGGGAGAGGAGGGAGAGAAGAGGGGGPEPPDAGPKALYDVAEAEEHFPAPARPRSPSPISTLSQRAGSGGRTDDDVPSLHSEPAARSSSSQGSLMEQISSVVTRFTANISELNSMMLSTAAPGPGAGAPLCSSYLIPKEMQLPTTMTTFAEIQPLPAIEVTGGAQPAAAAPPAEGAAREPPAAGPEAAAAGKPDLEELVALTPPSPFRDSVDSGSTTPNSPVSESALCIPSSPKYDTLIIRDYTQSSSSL
Method: I. Method for Determining the Inhibition of the [^3H]-MPEP Bond in the mGluR5 Receptor Bond Assay
Pig brain homogenate is produced by homogenisation (Polytron PT 3000, Kinematica AG, 10,000 rpm for 90 seconds) of pig brain halves without medulla, cerebellum and pons in buffer pH 8.0 (30 mM Hepes, Sigma, order no. H3375+1 tablet complete to 100 ml, Roche Diagnostics, order no. 1836145) in the ratio 1:20 (brain weight/volume) and differential centrifugation at 900×g and 40,000×g. In each case, 450 μg protein from brain homogenate is incubated with 5 nM ^3[H]-MPEP (Tocris, order no. […]
Thereafter, the batches are filtered with the help of a Brandel Cell Harvester (Brandel, TYP Robotic 9600) on unifilter plates with glass fibre filter mats (Perkin Elmer, order no. 6005177) and subsequently washed with buffer (as above) 3 times with in each case 250 μl per sample. The filter plates are subsequently dried for 60 min at 55° C. 30 μL Ultima Gold™ scintillator (Packard BioScience, order no. 6013159) is subsequently added per well and the samples are measured after 3 hours on the β-counter (Mikrobeta, Perkin Elmer). The unspecific bond is determined by addition of 10 μM MPEP (Tocris, order no. 1212).

SMILES	IC50
CC(Cc1ccccc1)N(C)C(=O)C#Cc1cccc(Cl)c1 (centres unmarked) [Example 241, 3-(3-chlorophenyl)-N-methyl-N-(1-phenylpropane-2-yl)propiolamide]	13 nM
O=C(C#Cc1cccc(Cl)c1)NCCc1ccccc1C(F)(F)F [Example 250, 3-(3-chlorophenyl)-N-(2-(trifluoromethyl)phenethyl)propiolamide]	33 nM
O=C(C#Cc1cccc(Cl)c1)NCCc1ccc(F)cc1 [Example 217, 3-(3-chlorophenyl)-N-(4-fluorophenethyl)propiolamide]	140 nM
Cc1ccc(CCNC(=O)C#Cc2cccc(Cl)c2)cc1 [Example 225, 3-(3-chlorophenyl)-N-(4-methylphenethyl)propiolamide]	210 nM
O=C(C#Cc1cccc(Cl)c1)NCCc1ccccc1F [Example 215, 3-(3-chlorophenyl)-N-(2-fluorophenethyl)propiolamide]	9 nM
O=C(C#Cc1cccc(Cl)c1)NCCc1cccc(C(F)(F)F)c1 [Example 219, 3-(3-chlorophenyl)-N-(3-(trifluoromethyl)phenethyl)propiolamide]	450 nM
O=C(C#Cc1cccc(Cl)c1)NCCn1cccn1 [Example 231, N-(2-(1H-pyrazol-1-yl)ethyl)-3-(3-chlorophenyl)propiolamide]	140 nM

Continued, values first:

IC50	SMILES
280 nM	O=C(C#Cc1cccc(Cl)c1)N(CCc1ccccc1)C1CC1 [Example 239, 3-(3-chlorophenyl)-N-cyclopropyl-N-phenethylpropiolamide]
120 nM	Cc1ncccc1CCN(C)C(=O)C#Cc1cccc(Cl)c1 [Example 249, 3-(3-chlorophenyl)-N-methyl-N-(2-(2-methylpyridine-3-yl)ethyl)propiolamide]
15 nM	Cc1cccc(CCN(C)C(=O)C#Cc2cccc(Cl)c2)c1 [Example 227, 3-(3-chlorophenyl)-N-methyl-N-(3-methylphenethyl)propiolamide]
12 nM	CN(CCc1cccnc1)C(=O)C#Cc1cccc(Cl)c1 [Example 243, 3-(3-chlorophenyl)-N-methyl-N-(2-(pyridine-3-yl)ethyl)propiolamide]
7 nM	O=C(C#Cc1cccc(Cl)c1)NCCc1cccnc1 [Example 235, 3-(3-chlorophenyl)-N-(2-(pyridine-3-yl)ethyl)propiolamide]
8 nM	Cc1ccccc1CCN(C)C(=O)C#Cc1cccc(Cl)c1 [Example 226, 3-(3-chlorophenyl)-N-methyl-N-(2-methylphenethyl)propiolamide]
44 nM	O=C(C#Cc1cccc(Cl)c1)NCCc1ccccc1 [Example 2, 3-(3-chlorophenyl)-N-phenethylpropiolamide]
44 nM	CCN(CCc1ccccc1)C(=O)C#Cc1cccc(Cl)c1 [Example 237, 3-(3-chlorophenyl)-N-ethyl-N-phenethylpropiolamide]
280 nM	Cc1ccc(CCN(C)C(=O)C#Cc2cccc(Cl)c2)cc1 [Example 228, 3-(3-chlorophenyl)-N-methyl-N-(4-methylphenethyl)propiolamide]
12 nM	COc1ccccc1CCN(C)C(=O)C#Cc1cccc(Cl)c1 [Example 240, 3-(3-chlorophenyl)-N-(2-methoxyphenethyl)-N-methylpropiolamide]
12 nM	O=C(C#Cc1cccc(Cl)c1)NCCc1cccc(F)c1 [Example 216, 3-(3-chlorophenyl)-N-(3-fluorophenethyl)propiolamide]

same assay, conditions: 10 μM test compound; 5 nM [3H]-MPEP; 450 μg protein pig brain homogenate; 60 min room temperature

SMILES	inhibition at 10 µM
Cc1ccc(CCNC(=O)C#Cc2cccs2)cc1 [Example 95, N-(4-methylphenethyl)-3-(thiophene-2-yl)propiolamide]	75%
Cc1cc(C#CC(=O)NCCc2cccs2)ccc1F [Example 56, 3-(4-fluoro-3-methylphenyl)-N-(2-(thiophene-2-yl)ethyl)propiolamide]	54%
Cc1ccc(C#CC(=O)N(C)CCc2ccccc2)c(C)c1 [Example 47, 3-(2,4-dimethylphenyl)-N-methyl-N-phenethylpropiolamide]	51%
O=C(C#Cc1ccccc1F)NCCc1cccc(Cl)c1 [Example 148, N-(3-chlorophenethyl)-3-(2-fluorophenyl)propiolamide]	79%
Cc1cc(C#CC(=O)NCCc2ccc(Cl)cc2)ccc1F [Example 135, N-(4-chlorophenethyl)-3-(4-fluoro-3-methylphenyl)propiolamide]	44%
O=C(C#Cc1cccs1)NCCc1ccc(Cl)c(Cl)c1 [Example 103, N-(3,4-dichlorophenethyl)-3-(thiophene-2-yl)propiolamide]	88%
O=C(C#Cc1ccccc1F)NCCc1ccccn1 [Example 8, 3-(2-fluorophenyl)-N-(2-(pyridine-2-yl)ethyl)propiolamide]	70%
O=C(C#Cc1ccccc1)NCCc1ccc(Cl)c(Cl)c1 [Example 101, N-(3,4-dichlorophenethyl)-3-phenylpropiolamide]	89%
Cc1cccc(C#CC(=O)NCCc2ccc(Cl)c(Cl)c2)c1 [Example 102, N-(3,4-dichlorophenethyl)-3-m-tolylpropiolamide]	105%
N#Cc1cccc(C#CC(=O)NCC(c2ccccc2)c2ccccc2)c1 [Example 98, 3-(3-cyanophenyl)-N-(2,2-diphenylethyl)propiolamide]	40%
COc1cccc(C#CC(=O)NCCc2ccc(C)cc2)c1 [Example 59, 3-(3-methoxyphenyl)-N-(4-methylphenethyl)propiolamide]	57%
Cc1cccc(C#CC(=O)NCCc2c[nH]c3ccccc23)c1 [Example 57, N-(2-(1H-indol-3-yl)ethyl)-3-m-tolylpropiolamide]	91%
O=C(C#Cc1ccccc1)NCCc1ccc(Cl)cc1 [Example 137, N-(4-chlorophenethyl)-3-phenylpropiolamide]	67%
O=C(C#Cc1ccc2[nH]ccc2c1)NCCc1ccccn1 [Example 38, 3-(1H-indol-5-yl)-N-(2-(pyridine-2-yl)ethyl)propiolamide]	36%
Cc1ccc(CCNC(=O)C#Cc2cccc(C)c2)cc1 [Example 70, N-(4-methylphenethyl)-3-m-tolylpropiolamide]	89%
O=C(C#Cc1ccccc1F)NCCc1ccc(F)cc1 [Example 151, N-(4-fluorophenethyl)-3-(2-fluorophenyl)propiolamide]	66%
O=C(C#Cc1ccccc1)NCCc1ccccn1 [Example 11, 3-phenyl-N-(2-(pyridine-2-yl)ethyl)propiolamide]	81%
COc1cccc(C#CC(=O)NCCc2ccccc2)c1 [Example 81, 3-(3-methoxyphenyl)-N-phenethylpropiolamide]	79%
COc1ccccc1CCNC(=O)C#Cc1cccc(C)c1 [Example 138, N-(2-methoxyphenethyl)-3-m-tolylpropiolamide]	97%
Cc1ccc(CCNC(=O)C#Cc2ccccc2F)cc1 [Example 149, 3-(2-fluorophenyl)-N-(4-methylphenethyl)propiolamide]	57%
COc1ccccc1CCNC(=O)C#Cc1cccc(C#N)c1 [Example 191, 3-(3-cyanophenyl)-N-(2-methoxyphenethyl)propiolamide]	96%
COc1cccc(C#CC(=O)NCCc2c[nH]c3ccccc23)c1 [Example 87, N-(2-(1H-indol-3-yl)ethyl)-3-(3-methoxyphenyl)propiolamide]	42%
O=C(C#Cc1ccccc1)NCCc1cccc(Cl)c1 [Example 65, N-(3-chlorophenethyl)-3-phenylpropiolamide]	97%
O=C(C#Cc1ccc(F)cc1)NCCc1ccccn1 [Example 20, 3-(4-fluoro-phenyl)-N-(2-(pyridine-2-yl)ethyl)propiolamide]	54%
Cc1cccc(C#CC(=O)NCCc2ccc(Cl)cc2)c1 [Example 139, N-(4-chlorophenethyl)-3-m-tolylpropiolamide]	91%
N#Cc1cccc(C#CC(=O)NCCc2ccccc2)c1 [Example 86, 3-(3-cyanophenyl)-N-phenethylpropiolamide]	86%
COc1ccccc1CCNC(=O)C#Cc1ccc(F)cc1F [Example 193, 3-(2,4-difluorophenyl)-N-(2-methoxyphenethyl)propiolamide]	31%

Other lines, results leading:

inhibition at 10 µM	SMILES
107%	Cc1cccc(C#CC(=O)NCCc2cccc(Cl)c2)c1 [Example 69, N-(3-chlorophenethyl)-3-m-tolylpropiolamide]
108%	CN(CCc1ccccc1)C(=O)C#Cc1cccc(C(F)(F)F)c1 [Example 49, N-methyl-N-phenethyl-3-(3-(trifluoromethyl)phenyl)propiolamide]
70%	COc1cccc(C#CC(=O)N(C)CCc2ccccc2)c1 [Example 80, 3-(3-methoxyphenyl)-N-methyl-N-phenethylpropiolamide]
91%	COc1cccc(C#CC(=O)NCCc2cccc(Cl)c2)c1 [Example 58, N-(3-chlorophenethyl)-3-(3-methoxyphenyl)propiolamide]
97%	Cc1cccc(C#CC(=O)N(C)CCc2ccccc2)c1 [Example 46, N-methyl-N-phenethyl-3-m-tolylpropiolamide]
